Measured values: patent US10829478B2, “5-[3-[piperazin-1-yl]-3-oxo-propyl]-imidazolidine-2,4-dione derivatives as ADAMTS 4 and 5 inhibitors for treating e.g. osteoarthritis” (Galapagos NV, priority 2016, dated 2020)
Where two headings read alike, the source gives them in different places.

How the values were obtained:
human TACE = human TACE (Homo sapiens (Human), UniProt P78536); assay: biochemical
Method: Finally, the fluorescence is read on the Envision (Perkin Elmer) after an incubation of 75 min at room temperature (Excitation 485 nm, Emission 530).

human MMP13 = human MMP13 (Homo sapiens (Human), UniProt P45452); assay: hMMP13 assay, Protocol 2 (390 MMP FRET Substrate I, Enzo enzyme); format: biochemical; settings: Protocol 2, human MMP13 (Enzo Life Sciences), read-out: hMMP-13 potency IC50
Method: Human MMP13 is preactivated by incubated the enzyme in the same buffer complemented with 1 mM freshly prepared p-Aminophenylmercuric acetate (AMPA) for 1 h at 37° C.

human MMP14 = human MMP14 (Homo sapiens (Human), UniProt P50281); assay: hMMP14 assay (390 MMP FRET Substrate I); format: biochemical; settings: human MMP14 (Biomol), read-out: hMMP-14 potency IC50
Method: The basis for the assay is the cleavage of the substrate 390 MMP FRET Substrate I (Anaspec Cat #AS-27076) by human MMP14 (Biomol, Cat #SE-259).
The reaction is initiated by adding to the assay plate 390 MMP FRET Substrate I (10 μL, 2.5 μM) in the same buffer.
Finally, the fluorescence is read on the Envision (Perkin Elmer) after an incubation of 60 min at room temperature (Excitation 485 nm, Emission 530).

human ADAMTS-5 = human ADAMTS-5 (Homo sapiens (Human), UniProt Q9UNA0); assay: hADAMTS-5 TBIS-1 cleavage assay, Protocol 3; format: biochemical; settings: 90 min at 37° C., read-out: hADAMTS-5 potency IC50
Method: The reaction is initiated by adding to the assay plate TBIS-1 (10 μL, 4.5 μM, Anaspec) in the same buffer.
Finally, the fluorescence is read on the Envision (Perkin Elmer) after an incubation of 90 min at 37° C. (Excitation 485 nm, emission 530).

human ADAMTS4 = human ADAMTS4 (Homo sapiens (Human), UniProt O75173); assay: hADAMTS-4 TBIS-1 cleavage assay, Protocol 2; format: biochemical
human ADAMTS6 = human ADAMTS6 (Homo sapiens (Human), UniProt Q9UKP5); assay: hADAMTS-6 fluorescent based protease assay (520 MMP FRET substrate XII); format: biochemical; settings: 37° C. for 2 h; read-out: hADAMTS-6 potency IC50
Summary of the method: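 ADAMTS6 (0.73 nM final) in 25 mM Tris pH 8.0, 0.05% CHAPS, 2.5 mM CaCl2 with compound dilution series (top 20 μM, 1/5 steps). Reaction started with 520 MMP FRET Substrate XII, incubated 2 h at 37 °C. Substrate cleavage read by fluorescence ex485/em530; IC50 determined.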

[1] = Protocol 2, 180 min at 37° C., read-out: ADAMTS4 potency IC50

Chain of human ADAMTS6 (Q9UKP5 other isoform, or with tags, fused parts or gaps): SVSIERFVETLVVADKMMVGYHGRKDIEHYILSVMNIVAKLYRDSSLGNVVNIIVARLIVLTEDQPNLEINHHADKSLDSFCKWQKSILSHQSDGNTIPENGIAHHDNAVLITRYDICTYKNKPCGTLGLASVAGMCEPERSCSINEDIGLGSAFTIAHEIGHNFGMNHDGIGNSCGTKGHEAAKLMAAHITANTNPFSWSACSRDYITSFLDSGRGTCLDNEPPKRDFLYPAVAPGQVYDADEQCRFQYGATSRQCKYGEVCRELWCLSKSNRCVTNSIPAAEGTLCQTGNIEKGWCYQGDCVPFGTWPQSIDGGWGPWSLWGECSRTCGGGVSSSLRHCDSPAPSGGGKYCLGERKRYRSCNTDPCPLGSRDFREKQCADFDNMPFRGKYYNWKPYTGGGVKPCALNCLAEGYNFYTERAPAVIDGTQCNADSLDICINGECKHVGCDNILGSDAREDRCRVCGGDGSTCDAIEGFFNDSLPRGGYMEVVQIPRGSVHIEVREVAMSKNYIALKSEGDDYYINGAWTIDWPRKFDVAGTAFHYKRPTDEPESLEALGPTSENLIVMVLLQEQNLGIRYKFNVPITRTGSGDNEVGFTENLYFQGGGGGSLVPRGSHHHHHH
Chain of human ADAMTS-5 (Q9UNA0 262-930): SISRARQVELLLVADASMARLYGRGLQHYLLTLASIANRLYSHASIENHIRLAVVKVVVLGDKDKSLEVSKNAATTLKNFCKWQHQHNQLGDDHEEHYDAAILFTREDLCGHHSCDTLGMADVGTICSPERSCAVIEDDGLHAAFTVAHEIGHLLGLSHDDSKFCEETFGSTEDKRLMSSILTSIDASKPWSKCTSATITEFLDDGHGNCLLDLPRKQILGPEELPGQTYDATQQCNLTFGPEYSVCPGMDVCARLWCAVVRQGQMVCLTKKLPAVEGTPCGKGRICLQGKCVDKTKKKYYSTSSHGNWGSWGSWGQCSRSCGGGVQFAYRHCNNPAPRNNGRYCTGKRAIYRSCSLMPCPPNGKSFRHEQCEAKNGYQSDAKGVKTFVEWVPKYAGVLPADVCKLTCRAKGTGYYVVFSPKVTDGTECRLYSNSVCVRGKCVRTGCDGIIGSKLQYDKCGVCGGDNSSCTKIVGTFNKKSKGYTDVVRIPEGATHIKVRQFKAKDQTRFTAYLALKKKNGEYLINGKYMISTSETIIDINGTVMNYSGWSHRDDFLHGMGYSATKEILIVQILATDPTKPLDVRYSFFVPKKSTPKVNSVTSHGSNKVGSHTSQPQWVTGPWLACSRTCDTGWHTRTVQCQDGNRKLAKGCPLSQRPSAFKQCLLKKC
Chain of human TACE (P78536 215-671): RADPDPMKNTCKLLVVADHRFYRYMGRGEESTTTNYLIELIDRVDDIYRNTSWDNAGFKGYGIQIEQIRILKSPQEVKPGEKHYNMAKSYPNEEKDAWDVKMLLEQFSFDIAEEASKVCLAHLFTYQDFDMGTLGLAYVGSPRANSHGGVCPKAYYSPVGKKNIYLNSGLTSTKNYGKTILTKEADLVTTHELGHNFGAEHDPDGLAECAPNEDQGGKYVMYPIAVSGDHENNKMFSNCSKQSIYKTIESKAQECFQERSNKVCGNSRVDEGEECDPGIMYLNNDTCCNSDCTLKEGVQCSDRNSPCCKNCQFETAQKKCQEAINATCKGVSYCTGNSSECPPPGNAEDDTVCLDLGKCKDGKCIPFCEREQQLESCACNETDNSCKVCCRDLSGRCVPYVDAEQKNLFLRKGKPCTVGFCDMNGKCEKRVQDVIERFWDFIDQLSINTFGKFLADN
Chain of human ADAMTS4 (O75173 213-837): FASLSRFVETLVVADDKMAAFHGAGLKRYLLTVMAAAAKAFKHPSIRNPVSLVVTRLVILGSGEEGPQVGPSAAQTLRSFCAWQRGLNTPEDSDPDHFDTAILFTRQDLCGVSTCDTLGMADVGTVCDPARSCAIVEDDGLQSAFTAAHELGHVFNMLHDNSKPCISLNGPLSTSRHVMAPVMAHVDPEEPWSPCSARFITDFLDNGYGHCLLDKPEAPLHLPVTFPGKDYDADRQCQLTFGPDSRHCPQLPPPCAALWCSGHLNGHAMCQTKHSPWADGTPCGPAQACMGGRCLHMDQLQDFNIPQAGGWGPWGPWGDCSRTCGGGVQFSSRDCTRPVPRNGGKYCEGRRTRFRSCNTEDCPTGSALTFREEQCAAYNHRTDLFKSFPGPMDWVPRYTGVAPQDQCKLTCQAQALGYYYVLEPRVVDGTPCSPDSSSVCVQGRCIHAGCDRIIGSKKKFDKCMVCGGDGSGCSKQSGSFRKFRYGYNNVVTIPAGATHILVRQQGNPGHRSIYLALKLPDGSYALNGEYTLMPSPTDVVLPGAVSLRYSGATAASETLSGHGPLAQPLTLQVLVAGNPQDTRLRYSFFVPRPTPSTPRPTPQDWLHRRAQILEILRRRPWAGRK

Row | Structure (SMILES) | IC50 (human TACE) [nM] | IC50 (human MMP13) [nM] | IC50 (human MMP14) [nM] | IC50 (human ADAMTS-5) [nM] | IC50 (human ADAMTS4; [1]) [nM] | IC50 (human ADAMTS6) [nM] | IC50 (human ADAMTS4) [nM]
1 | CCOc1cc(N2CCN(C(=O)CC[C@H]3NC(=O)NC3=O)C[C@@H]2C)cc(OC)c1Cl [Cpd 150, (5R)-5-[3-[(3 S)-4-(4-chloro-3-ethoxy-5-methoxy-phenyl)-3-methyl-piperazin-1-yl]-3-oxo-propyl]imidazolidine-2,4-dione] | > 100 | > 100 | > 100 | > 100 | > 100 | 0.001 to 25 | 
2 | COc1cc(N2CCN(C(=O)CC[C@@]3(C)NC(=O)NC3=O)C[C@@H]2C)ccc1F [Cpd 93, (5R)-5-[3-[(3 S)-4-(4-fluoro-3-methoxy-phenyl)-3-methyl-piperazin-1-yl]-3-oxo-propyl]-5-methyl-imidazolidine-2,4-dione] | > 100 | > 100 | > 100 | > 100 | > 100 | 0.001 to 25 | 
3 | COc1cc(N2CCN(C(=O)[C@@H](C)C[C@@]3(C)NC(=O)NC3=O)C[C@@H]2C)cc(F)c1Cl (stereo in doubt) [Cpd 120, 5-[3-[(3S)-4-(4-chloro-3-fluoro-5-methoxy-phenyl)-3-methyl-piperazin-1-yl]-2-methyl-3-oxo-propyl]-5-methyl-imidazolidine-2,4-dione] | > 100 | > 100 | > 100 | 0.001 to 25 |  | 0.001 to 25 | 50 to 100
4 | COc1cc(N2CCN(C(=O)CC[C@]3(C)NC(=O)NC3=O)C[C@@H]2C)ccc1Cl [Cpd 146, (5 S)-5-[3-[(3 S)-4-(4-chloro-3-methoxy-phenyl)-3-methyl-piperazin-1-yl]-3-oxo-propyl]-5-methyl-imidazolidine-2,4-dione] | > 100 | > 100 | > 100 | > 100 | > 100 | > 100 | 
5 | COc1cc(N2CCN(C(=O)CC[C@@]3(C)NC(=O)NC3=O)CC2C(F)(F)F)ccc1Cl (stereo partly drawn) [Cpd 118, (5R)-5-[3-[4-(4-chloro-3-methoxy-phenyl)-3-(trifluoromethyl)piperazin-1-yl]-3-oxo-propyl]-5-methyl-imidazolidine-2,4-dione] | > 100 | > 100 | > 100 | > 100 | > 100 | 0.001 to 25 | 
6 | CCc1cc(N2CCN(C(=O)CC[C@@]3(C)NC(=O)NC3=O)CC2)ccc1Cl [Cpd 71, (5R)-5-[3-[4-(4-chloro-3-ethyl-phenyl)piperazin-1-yl]-3-oxo-propyl]-5-methyl-imidazolidine-2,4-dione] | > 100 | > 100 | > 100 | > 100 | > 100 | 25 to 50 | 
7 | CCc1cc(N2CCN(C(=O)CC[C@@]3(C)NC(=O)NC3=O)C[C@@H]2C)ccc1Cl [Cpd 75, (5R)-5-[3-[(3 S)-4-(4-chloro-3-ethyl-phenyl)-3-methyl-piperazin-1-yl]-3-oxo-propyl]-5-methyl-imidazolidine-2,4-dione] | > 100 | > 100 | > 100 | 50 to 100 | > 100 | 0.001 to 25 | 
8 | CCc1cc(N2CCN(C(=O)CC[C@@]3(C)NC(=O)NC3=O)C[C@@H]2C)cc(OC)c1Cl [Cpd 106, (5R)-5-[3-[(3 S)-4-(4-chloro-3-ethyl-5-methoxy-phenyl)-3-methyl-piperazin-1-yl]-3-oxo-propyl]-5-methyl-imidazolidine-2,4-dione] | > 100 | > 100 | > 100 | > 100 | > 100 | 0.001 to 25 | 
9 | CC[C@H]1CN(C(=O)CC[C@@]2(C)NC(=O)NC2=O)CCN1c1ccc(Cl)c(OC)c1 [Cpd 107, (5R)-5-[3-[(3 S)-4-(4-chloro-3-methoxy-phenyl)-3-ethyl-piperazin-1-yl]-3-oxo-propyl]-5-methyl-imidazolidine-2,4-dione] | > 100 | > 100 | > 100 | > 100 | > 100 | > 100 | 
10 | COc1cc(N2CCN(C(=O)CC[C@@]3(C)NC(=O)NC3=O)C[C@@H]2C)cc(N(C)C)c1Cl [Cpd 99, (5R)-5-[3-[(3S)-4-[4-chloro-3-(dimethylamino)-5-methoxy-phenyl]-3-methyl-piperazin-1-yl]-3-oxo-propyl]-5-methyl-imidazolidine-2,4-dione] | > 100 | > 100 | > 100 | > 100 | > 100 | 0.001 to 25 | 
11 | COc1cc(N2CCN(C(=O)CC[C@@]3(C)NC(=O)NC3=O)C[C@@H]2C)cc(C)c1Cl [Cpd 105, (5R)-5-[3-[(3S)-4-(4-chloro-3-methoxy-5-methyl-phenyl)-3-methyl-piperazin-1-yl]-3-oxo-propyl]-5-methyl-imidazolidine-2,4-dione] | > 100 | > 100 | > 100 | > 100 |  | 0.001 to 25 | 50 to 100
12 | CCOc1cc(N2CCN(C(=O)CC[C@@]3(C)NC(=O)NC3=O)C[C@@H]2C)cc(OC)c1Cl [Cpd 80, (5R)-5-[3-[(3 S)-4-(4-chloro-3-ethoxy-5-methoxy-phenyl)-3-methyl-piperazin-1-yl]-3-oxo-propyl]-5-methyl-imidazolidine-2,4-dione] | > 100 | > 100 | > 100 | > 100 | > 100 | 0.001 to 25 | 
13 | COc1cc(N2CCN(C(=O)CCC3(c4cccc(C)n4)NC(=O)NC3=O)C[C@@H]2C)cc(F)c1F (stereo partly drawn) [Cpd 61, 5-[3-[(3S)-4-(3,4-difluoro-5-methoxy-phenyl)-3-methyl-piperazin-1-yl]-3-oxo-propyl]-5-(6-methyl-2-pyridyl)imidazolidine-2,4-dione] | > 100 | > 100 | > 100 | 25 to 50 | > 100 | 0.001 to 25 | 
14 | COc1cc(N2CCN(C(=O)CC[C@@]3(C)NC(=O)NC3=O)C[C@@H]2C(C)C)ccc1Cl [Cpd 109, (5R)-5-[3-[(3S)-4-(4-chloro-3-methoxy-phenyl)-3-isopropyl-piperazin-1-yl]-3-oxo-propyl]-5-methyl-imidazolidine-2,4-dione] | > 100 | > 100 | > 100 | > 100 | > 100 | > 100 | 
15 | COc1cc(N2CCN(C(=O)CC[C@H]3NC(=O)NC3=O)C[C@@H]2C)cc(Cl)c1F [Cpd 148, (5R)-5-[3-[(3 S)-4-(3-chloro-4-fluoro-5-methoxy-phenyl)-3-methyl-piperazin-1-yl]-3-oxo-propyl]imidazolidine-2,4-dione] | > 100 | > 100 | > 100 | 25 to 50 | > 100 | 0.001 to 25 | 
16 | COc1cc(N2CCN(C(=O)CC[C@@]3(C)NC(=O)NC3=O)C[C@@H]2C)cc(OC)c1F [Cpd 89, (5R)-5-[3-[(3 S)-4-(4-fluoro-3,5-dimethoxy-phenyl)-3-methyl-piperazin-1-yl]-3-oxo-propyl]-5-methyl-imidazolidine-2,4-dione] | > 100 | > 100 | > 100 | > 100 | > 100 | 0.001 to 25 | 
